Laboratory results taken from ChEMBL document CHEMBL6087460, “Generating a Peptide Library Using the Repeats of Amino Acid Scaffolds Created by Sliding the Framework of a 7-mer Human Chemerin Segment and Discovery of Potent Antibacterial and Antimycobacterial Peptides” (J Med Chem, 2025).
≈ marks a conversion by molar mass, not a printed value. Calls of active or inactive are those of the source. The calls are words filed in the database; no cut-off is given here. Where a SMILES comes first, the peptide text is derived from it.

Tests used:
[1] = Drug localization in cell membrane of Escherichia coli ATCC 25922 at 3 times MIC by confocal microscopy; format: ADME, cell membranes
[2] = system: Escherichia coli; test: Antibacterial activity against Escherichia coli ATCC 25922 incubated for 16 to 18 hrs by broth dilution assay; format: functional; details: time 16-18 hrs
[3] = system: Klebsiella pneumoniae; test: Antibacterial activity against Klebsiella pneumoniae ATCC 27736 incubated for 16 to 18 hrs by broth dilution assay; format: functional; details: time 16-18 hrs
[4] = system: Pseudomonas aeruginosa; test: Antibacterial activity against Pseudomonas aeruginosa ATCC BAA-427 incubated for 16 to 18 hrs by broth dilution assay; format: functional; details: time 16-18 hrs
[5] = system: Staphylococcus aureus; test: Antibacterial activity against Staphylococcus aureus ATCC 25923 incubated for 16 to 18 hrs by broth dilution assay; format: functional; details: time 16-18 hrs
[6] = system: Bacillus subtilis; test: Antibacterial activity against Bacillus subtilis 6633 incubated for 16 to 18 hrs by broth dilution assay; format: functional; details: time 16-18 hrs
[7] = system: Staphylococcus aureus; test: Antibacterial activity against methicillin-resistant Staphylococcus aureus 33591 incubated for 16 to 18 hrs by broth dilution assay; format: functional; details: time 16-18 hrs
[8] = system: Staphylococcus aureus; test: Antibacterial activity against methicillin-resistant Staphylococcus aureus BAA-44 incubated for 16 to 18 hrs by broth dilution assay; format: functional; details: time 16-18 hrs
[9] = system: Escherichia coli; test: Induction of resistance development in Escherichia coli ATCC 25922 assessed as fold increase in MIC at sub-MIC measured after 30 passages relative to control; format: functional
[10] = system: Staphylococcus aureus; test: Induction of resistance development in Staphylococcus aureus ATCC 25923 assessed as fold increase in MIC at sub-MIC measured after 30 passages relative to control; format: functional
[11] = system: Staphylococcus aureus; test: Induction of resistance development in methicillin-resistant Staphylococcus aureus 33591 assessed as fold increase in MIC at sub-MIC measured after 30 passages relative to control; format: functional
[12] = system: Staphylococcus aureus; test: Induction of resistance development in methicillin-resistant Staphylococcus aureus BAA-44 assessed as fold increase in MIC at sub-MIC measured after 30 passages relative to control; format: functional
[13] = system: Mycolicibacterium smegmatis; test: Antitubercular activity against Mycobacterium smegmatis incubated for 24 hrs by rezasurin dye based assay; format: functional
[14] = Retention time of compound by RP-HPLC method; format: physicochemical
[15] = Hemolytic activity in human RBC measured after 40 mins by absorbance based assay; format: toxicity, cell-based, Erythrocyte; details: human red blood cells
[16] = system: Escherichia coli; test: Bactericidal activity against Escherichia coli ATCC 25922 incubated for 16 to 18 hrs; format: functional; details: time 16-18 hrs
[17] = system: Escherichia coli; test: Antibacterial activity against Escherichia coli ATCC 25922 incubated for 16 to 18 hrs in presence of 10 percent human serum by broth dilution assay; format: functional; details: time 16-18 hrs
[18] = system: Staphylococcus aureus; test: Bactericidal activity against Staphylococcus aureus ATCC 25923 incubated for 16 to 18 hrs; format: functional; details: time 16-18 hrs
[19] = system: Staphylococcus aureus; test: Antibacterial activity against Staphylococcus aureus ATCC 25923 incubated for 16 to 18 hrs in presence of 10 percent human serum by broth dilution assay; format: functional; details: time 16-18 hrs
[20] = Cytotoxicity against mouse 3T3-L1 cells assessed as cell viability at 100 uM incubated for 24 hrs by MTT assay relative to control; format: toxicity, cell-based; details: 3T3-L1 cells, read-out: Activity
[21] = Cytotoxicity against rat L6 cells assessed as cell viability at 100 uM incubated for 24 hrs by MTT assay relative to control; format: toxicity, cell-based; details: L6 cells, read-out: Activity
[22] = system: Escherichia coli; test: Bactericidal activity against Escherichia coli ATCC 25922 at MIC incubated for 45 mins by time kill assay; format: functional, organism-based
[23] = system: Staphylococcus aureus; test: Bactericidal activity against Staphylococcus aureus ATCC 25923 at MIC incubated for 45 mins by time kill assay; format: functional, organism-based
[24] = system: Escherichia coli; test: Induction of membrane depolarization in Escherichia coli ATCC 25922 by diSC3-5 dye based analysis; format: functional, organism-based
[25] = system: Staphylococcus aureus; test: Induction of membrane depolarization in Staphylococcus aureus ATCC 25923 by diSC3-5 dye based analysis; format: functional, organism-based
[26] = system: Escherichia coli; test: Disruption of plasma membrane integrity in Escherichia coli ATCC 25922 by SYTOX-Green uptake assay; format: functional, organism-based
[27] = system: Staphylococcus aureus; test: Disruption of plasma membrane integrity in Staphylococcus aureus ATCC 25923 by SYTOX-Green uptake assay; format: functional, organism-based
[28] = system: Escherichia coli; test: Disruption of membrane integrity in Escherichia coli ATCC 25922 by PI staining based analysis; format: functional, organism-based
[29] = system: Staphylococcus aureus; test: Disruption of membrane integrity in Staphylococcus aureus ATCC 25923 by PI staining based analysis; format: functional, organism-based
[30] = Hemolytic activity in human RBC assessed as disruption of membrane integrity by Alexa Fluor-Annexin V staining based analysis; format: toxicity, cell-based; details: erythrocyte
[31] = Hemolytic activity in human RBC at 100 uM measured after 40 mins by absorbance based assay relative to control; format: toxicity, cell-based, Erythrocyte; details: for hemolysis at 40 min, 100 µM: human red blood cells, read-out: Activity
[32] = Stability in 10 percent human serum assessed as compound remaining measured after 60 mins by RP-HPLC analysis; format: ADME, cell-free; details: 10% human serum, read-out: Stability
[33] = system: Escherichia coli; test: Bactericidal activity against Escherichia coli ATCC 25922 at MIC incubated for 60 mins by time kill assay; format: functional, organism-based
[34] = system: Staphylococcus aureus; test: Bactericidal activity against Staphylococcus aureus ATCC 25923 at MIC incubated for 60 mins by time kill assay; format: functional, organism-based
[35] = system: Escherichia coli; test: Induction of cell membrane damage in Escherichia coli ATCC 25922 at 3 times MIC incubated for 60 mins by SEM analysis; format: functional, organism-based
[36] = system: Staphylococcus aureus; test: Induction of cell membrane damage in Staphylococcus aureus ATCC 25923 at 3 times MIC incubated for 60 mins by SEM analysis; format: functional, organism-based

| Compound | MIC [2] | MIC [3] | MIC [4] | MIC [5] | MIC [6] | MIC [7] | MIC [8] | MIC [13] | Retention_time [14] | HC50 at 40 min [15] | MBC [16] | MIC [17] | MBC [18] | MIC [19] | viability at 24 h, 100 µM [20] | viability at 24 h, 100 µM [21] | Activity [24] | Activity [25] | Activity [26] | Activity [27] | further results |
| --- | --- | --- | --- | --- | --- | --- | --- | --- | --- | --- | --- | --- | --- | --- | --- | --- | --- | --- | --- | --- | --- |
| CC(C)C[C@H](NC(=O)[C@H](CCCNC(=N)N)NC(=O)[C@@H](NC(=O)[C@H](CC(C)C)NC(=O)[C@H](CCCNC(=N)N)NC(=O)[C@@H](NC(=O)[C@H](CC(C)C)NC(=O)[C@H](CCCNC(=N)N)NC(=O)[C@@H](NC(=O)[C@H](CC(C)C)NC(=O)[C@H](CCCNC(=N)N)NC(=O)c1cc(C(=O)O)ccc1-c1c2ccc(=[N+](C)C)cc-2oc2cc(N(C)C)ccc12)C(C)C)C(C)C)C(C)C)C(=O)N[C@H](C(=O)O)C(C)C.[Cl-] (HELM PEPTIDE1{[CN(C)c1ccc2c(-c3ccc(C(=O)O)cc3C(=O)[*:2])c3ccc(=[N+](C)C)cc-3oc2c1].R.L.V.R.L.V.R.L.V.R.L.V}$$$$V2.0) | – | – | – | – | – | – | – | – | – | – | – | – | – | – | – | – | – | – | – | – | Drug uptake [1]: Active |
| O=C(O)c1cn(C2CC2)c2cc(N3CCNCC3)c(F)cc2c1=O [CIPROFLOXACIN] | 0.1 µM (≈ 0.0331 µg/mL) | 0.1 µM (≈ 0.0331 µg/mL) | 6.3 µM (≈ 2.09 µg/mL) | 6.3 µM (≈ 2.09 µg/mL) | 6.3 µM (≈ 2.09 µg/mL) | 6.3 µM (≈ 2.09 µg/mL) | 6.3 µM (≈ 2.09 µg/mL) | – | – | – | – | – | – | – | – | – | – | – | – | – | fold change (FC) [9]: 128; fold change (FC) [10]: 128; fold change (FC) [11]: 128; fold change (FC) [12]: 128 |
| CO[C@H]1/C=C/O[C@@]2(C)Oc3c(C)c(O)c4c(O)c(c(/C=N/N5CCN(C)CC5)c(O)c4c3C2=O)NC(=O)/C(C)=C\C=C\[C@H](C)[C@H](O)[C@@H](C)[C@@H](O)[C@@H](C)[C@H](OC(C)=O)[C@@H]1C [RIFAMPIN] | – | – | – | – | – | – | – | 0.25 µM (≈ 0.206 µg/mL) | – | – | – | – | – | – | – | – | – | – | – | – | – |
| CN(C)[C@@H]1C(O)=C(C(N)=O)C(=O)[C@@]2(O)C(O)=C3C(=O)c4c(O)cccc4[C@@](C)(O)[C@H]3C[C@@H]12 [TETRACYCLINE] | 3.1 µM (≈ 1.38 µg/mL) | 3.1 µM (≈ 1.38 µg/mL) | 50 µM (≈ 22.2 µg/mL) | 3.1 µM (≈ 1.38 µg/mL) | 1.6 µM (≈ 0.711 µg/mL) | 100 µM (≈ 44.4 µg/mL) | 100 µM (≈ 44.4 µg/mL) | – | – | – | – | – | – | – | – | – | – | – | – | – | fold change (FC) [9]: 32; fold change (FC) [10]: 64; fold change (FC) [11]: <=64; fold change (FC) [12]: 128 |
| H-KVLGKVLGKVLGKVLG-OH | 3.9 µM | 7.8 µM | 15.6 µM | 7.8 µM | 15.6 µM | 7.8 µM | 3.9 µM | > 10 µM | 20.12 min | 2 mM | 3.9 µM | 3.9 µM | 12.6 µM | 12.6 µM | 75% | 75% | Active | Active | Active | Active | Activity [22]: Active; Activity [23]: Active; Activity [28]: Active; Activity [29]: Active; Activity [30]: Non-toxic |
| H-KVLKVLKVLKVLKVL-OH | 1.8 µM | 3.6 µM | 14.5 µM | 3.6 µM | 3.6 µM | 3.6 µM | 3.6 µM | – | 20.77 min | 0.256 mM | – | – | – | – | – | – | – | – | – | – | hemolysis at 40 min, 100 µM [31]: 20%; remaining at 1 h [32]: 65% |
| H-LGRLLGRLLGRL-OH | 9.4 µM | 37.4 µM | 37.4 µM | 9.4 µM | 9.4 µM | 9.4 µM | 4.7 µM | 5 µM | 15.4 min | 2 mM | 18.2 µM | 18.2 µM | 18.2 µM | 18.2 µM | > 80% | > 80% | Active | Active | Active | Active | Activity ([31]; erythrocyte, 40 min, 100 µM): Non-toxic; Activity [33]: Active; Exhibited Rapid Kinetics; Activity [34]: Active; Exhibited Rapid Kinetics; Activity [28]: Active; Activity [29]: Active; Activity [30]: Non-toxic |
| H-RLRLRLRLRLRL-OH | 1.9 µM | 30.6 µM | 15.3 µM | 3.8 µM | 3.8 µM | 15.3 µM | 15.3 µM | – | 15.99 min | 0.279 mM | – | – | – | – | – | – | – | – | – | – | hemolysis at 40 min, 100 µM [31]: 17% |
| H-RLRLRLRLRLRLRL-OH | 3.3 µM | 26.2 µM | 13.1 µM | 3.3 µM | 3.3 µM | 13.1 µM | 13.1 µM | – | 16.72 min | 0.249 mM | – | – | – | – | – | – | – | – | – | – | hemolysis at 40 min, 100 µM [31]: 20% |
| H-RLVRLVRLVRLV-OH | 4.2 µM | 8.4 µM | 8.4 µM | 4.2 µM | 2.1 µM | 4.2 µM | 4.2 µM | 5 µM | 19.25 min | 2 mM | 8.4 µM | 16.8 µM | 8.4 µM | 16.8 µM | 75% | 75% | Active | Active | Active | Active | Activity [22]: Active; Activity [23]: Active; Activity [28]: Active; Activity [29]: Active; Activity [30]: Non-toxic; Activity [35]: Active; Activity [36]: Active |
